In patent publication US12006328B2, “Thieno[2,3-d]pyrimidin-4-one derivatives as NMDAR modulators and uses related thereto” (Emory University, priority 2014, dated 2024):

Assays:
[1] = target: GluN2D-containing NMDA receptors (Homo sapiens, UniProt O15399+Q05586); experiment: Two-electrode voltage-clamp recordings from Xenopus laevis oocytes, GluN2D; assay type: cell-based; conditions: Table 6; read-out: IC50 (μM) Glu N2D
Description: (§1) Xenopus laevis oocytes were injected with cRNA encoding the NMDA receptor subunits. Two to seven days after injection, two-electrode voltage-clamp recordings were performed. Extracellular solutions were made from a solutions containing (in mM) 90 NaCl, 3 KCl, 10 HEPES, 0.5 BaCl2, 0.01 EDTA (pH 7.4 with NaOH). Voltage and current electrodes were filled with 0.3 M and 3.0 M KCl, respectively.
(§2) Potency was determined by adding increasing concentrations of test compound to saturating concentrations of glutamate (100 μM) and glycine (30 μM), and the response amplitude measured. The response in the presence of each concentration of test compound plus agonists was expressed as a percent of the response in the absence of test compound.

[2] = target: GluN2B-containing NMDA receptors (Homo sapiens, UniProt Q13224); experiment: Two-electrode voltage-clamp recordings from Xenopus laevis oocytes, GluN2B; assay type: cell-based; conditions: for % response at 100 μM, Glu N2B: Table 6, printed in the IC50 column, 100 μM compound; for EC50 / maximal potentiation Glu N2B: Table 1; for EC50: glutamate 100 μM, glycine 30 μM, Hill fit, read-out: EC50 Glu N2B; for maximal potentiation Glu N2B: in brackets after EC50; for maximal potentiation Glu N2B / I10 μM/ICONTROL (mean ± SEM, %) Glu N2B: percent of response without compound; for I10 μM/ICONTROL (mean ± SEM, %) Glu N2B: 10 μM test compound with glutamate 100 μM and glycine 30 μM, Tables 1-5
GluN2B-containing NMDA receptors, sequence (Q13224 27-1484, other chains not shown): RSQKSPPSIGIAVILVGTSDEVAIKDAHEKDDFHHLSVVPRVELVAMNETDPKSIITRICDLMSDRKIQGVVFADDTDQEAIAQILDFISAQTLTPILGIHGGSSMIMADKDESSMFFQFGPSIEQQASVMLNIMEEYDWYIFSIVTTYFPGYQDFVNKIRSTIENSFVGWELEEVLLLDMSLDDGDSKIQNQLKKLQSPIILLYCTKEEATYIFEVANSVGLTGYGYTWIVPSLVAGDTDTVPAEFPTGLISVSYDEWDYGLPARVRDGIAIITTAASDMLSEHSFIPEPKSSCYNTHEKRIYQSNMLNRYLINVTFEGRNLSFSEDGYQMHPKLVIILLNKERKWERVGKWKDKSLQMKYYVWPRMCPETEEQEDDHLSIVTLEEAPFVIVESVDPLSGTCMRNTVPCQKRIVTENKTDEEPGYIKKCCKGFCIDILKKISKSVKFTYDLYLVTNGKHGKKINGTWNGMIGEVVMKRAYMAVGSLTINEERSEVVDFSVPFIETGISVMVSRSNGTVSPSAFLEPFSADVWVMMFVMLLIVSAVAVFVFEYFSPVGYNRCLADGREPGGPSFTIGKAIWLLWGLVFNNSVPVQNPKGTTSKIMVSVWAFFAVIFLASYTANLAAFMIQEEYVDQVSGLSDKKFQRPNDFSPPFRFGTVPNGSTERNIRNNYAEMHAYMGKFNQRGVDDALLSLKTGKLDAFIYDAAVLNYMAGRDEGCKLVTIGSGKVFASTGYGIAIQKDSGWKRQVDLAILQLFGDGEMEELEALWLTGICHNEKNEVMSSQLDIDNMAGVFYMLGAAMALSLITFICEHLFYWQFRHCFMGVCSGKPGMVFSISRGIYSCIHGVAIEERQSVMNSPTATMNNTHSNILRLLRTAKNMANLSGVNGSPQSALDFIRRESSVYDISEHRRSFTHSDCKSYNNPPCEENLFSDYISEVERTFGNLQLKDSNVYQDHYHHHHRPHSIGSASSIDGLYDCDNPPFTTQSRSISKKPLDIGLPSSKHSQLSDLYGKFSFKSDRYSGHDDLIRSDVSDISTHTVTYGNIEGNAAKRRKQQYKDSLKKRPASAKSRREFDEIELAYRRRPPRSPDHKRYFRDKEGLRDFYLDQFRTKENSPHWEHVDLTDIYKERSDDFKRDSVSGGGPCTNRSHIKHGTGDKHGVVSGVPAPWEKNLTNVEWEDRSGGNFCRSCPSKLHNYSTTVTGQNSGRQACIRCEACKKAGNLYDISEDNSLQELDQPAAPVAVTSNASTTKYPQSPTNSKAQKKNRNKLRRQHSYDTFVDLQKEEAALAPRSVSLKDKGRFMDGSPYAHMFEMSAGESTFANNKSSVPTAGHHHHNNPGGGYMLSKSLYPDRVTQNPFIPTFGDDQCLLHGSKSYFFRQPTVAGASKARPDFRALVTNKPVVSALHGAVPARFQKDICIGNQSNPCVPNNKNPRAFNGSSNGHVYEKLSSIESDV
Description: as §1, §2

[3] = target: GluN2C-containing NMDA receptors (Homo sapiens, UniProt Q05586+Q14957); experiment: Two-electrode voltage-clamp recordings from Xenopus laevis oocytes, GluN2C; assay type: cell-based; conditions: Table 6; read-out: IC50 (μM) Glu N2C
GluN2C-containing NMDA receptors (Homo sapiens, UniProt Q05586+Q14957), sequence (Q14957 20-1233, other chains not shown): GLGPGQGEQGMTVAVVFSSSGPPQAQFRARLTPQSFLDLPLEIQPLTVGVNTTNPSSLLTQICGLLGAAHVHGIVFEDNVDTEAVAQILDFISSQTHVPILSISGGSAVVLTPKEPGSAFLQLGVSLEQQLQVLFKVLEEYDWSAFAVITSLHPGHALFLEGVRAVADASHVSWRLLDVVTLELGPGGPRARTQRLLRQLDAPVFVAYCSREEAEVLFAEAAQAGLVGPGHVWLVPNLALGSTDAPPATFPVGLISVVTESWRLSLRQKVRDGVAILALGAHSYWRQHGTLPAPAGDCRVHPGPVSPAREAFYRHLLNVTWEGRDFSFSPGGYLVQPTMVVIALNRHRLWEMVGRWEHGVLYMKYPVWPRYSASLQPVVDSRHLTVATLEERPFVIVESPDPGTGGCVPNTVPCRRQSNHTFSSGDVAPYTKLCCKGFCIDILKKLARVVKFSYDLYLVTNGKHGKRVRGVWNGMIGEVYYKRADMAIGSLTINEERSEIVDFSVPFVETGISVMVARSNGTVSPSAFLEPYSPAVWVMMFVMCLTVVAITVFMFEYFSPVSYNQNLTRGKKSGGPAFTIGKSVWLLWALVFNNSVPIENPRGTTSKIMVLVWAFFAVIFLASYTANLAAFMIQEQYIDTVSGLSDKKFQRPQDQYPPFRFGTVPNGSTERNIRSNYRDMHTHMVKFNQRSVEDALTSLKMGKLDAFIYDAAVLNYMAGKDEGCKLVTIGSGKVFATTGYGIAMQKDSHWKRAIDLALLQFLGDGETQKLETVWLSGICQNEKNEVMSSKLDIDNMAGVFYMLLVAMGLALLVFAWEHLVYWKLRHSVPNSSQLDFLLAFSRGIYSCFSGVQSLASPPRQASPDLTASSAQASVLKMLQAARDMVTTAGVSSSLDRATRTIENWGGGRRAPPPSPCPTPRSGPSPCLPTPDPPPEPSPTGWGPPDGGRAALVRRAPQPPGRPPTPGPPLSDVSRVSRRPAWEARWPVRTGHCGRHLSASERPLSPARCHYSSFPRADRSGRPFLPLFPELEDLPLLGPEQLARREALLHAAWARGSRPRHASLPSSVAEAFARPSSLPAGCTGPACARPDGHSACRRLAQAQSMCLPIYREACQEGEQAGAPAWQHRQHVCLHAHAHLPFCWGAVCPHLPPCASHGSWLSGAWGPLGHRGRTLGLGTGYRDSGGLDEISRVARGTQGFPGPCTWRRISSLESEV
Description: as §1, §2

[4] = target: T1, GluN1/GluN2B expressing HEK293 cells (Homo sapiens, UniProt Q13224); experiment: Rapid solution exchange patch clamp in transfected HEK293 cells; assay type: cell-based
T1 construct: expressed in transfected cells; host or cells: HEK293
T1 sequence (Q13224 27-1484, other chains not shown): as the sequence (Q13224 27-1484, other chains not shown) above
Description: HEK293 cells were transfected used the CaPO4 method. Cells were patched 1-3 days later and lifted into the flow from a theta tube perfusion. […] NMDA receptor currents were activated using 100 μM glutamate and 30 μM glycine.

hippocampal CA1 neurons = experiment: Hippocampal slice whole cell recordings; assay type: cell-based, mice
Text: Coronal hippocampal brain slices were made from mice (p7-14) using a vibrotome. During slice cutting and recovery, the slices were bathed in an artificial cerebral spinal fluid (slicing aCSF—containing, in mM: 75 NaCl, 2.5 KCl, 1.25 NaH2PO4, 25 NaHCO3, 5 MgCl2 or MgSO4, 0.5 CaCl2, 20 Glucose, 70 Sucrose). Whole cell recordings were made using a different aCSF (recording aCSF—containing, in mM: 130 NaCl, 2.5 KCl, 1.25 NaH2PO4, 25 NaHCO3, 0.1 MgCl2 or MgSO4, 2.5 CaCl2, 20 Glucose), and using a CsGlu internal solution containing, following (in mM): 110 d-gluconic acid, 110 CsOH, 30 CsCl, 5 HEPES, 4 NaCl, 0.5 CaCl2, 2 MgCl2, 5 BAPTA, 2 Na2ATP, and 0.3 NaGTP (pH 7.35).

[5] = target: GluN2D-containing NMDA receptors (Homo sapiens, UniProt O15399); experiment: Two-electrode voltage-clamp recordings from Xenopus laevis oocytes, GluN2D; assay type: cell-based; conditions: for EC50 / maximal potentiation Glu N2D: Table 1; for EC50: glutamate 100 μM, glycine 30 μM, Hill fit, read-out: EC50 Glu N2D; for maximal potentiation Glu N2D: in brackets after EC50; for maximal potentiation Glu N2D / I10 μM/ICONTROL (mean ± SEM, %) Glu N2D: percent of response without compound; for I10 μM/ICONTROL (mean ± SEM, %) Glu N2D: 10 μM test compound with glutamate 100 μM and glycine 30 μM, Tables 1-5
Description: as §1, §2

[6] = target: GluN2C-containing NMDA receptors (Homo sapiens, UniProt Q14957); experiment: Two-electrode voltage-clamp recordings from Xenopus laevis oocytes, GluN2C; assay type: cell-based; conditions: for EC50 / maximal potentiation Glu N2C: Table 1; for EC50: glutamate 100 μM, glycine 30 μM, Hill fit, read-out: EC50 Glu N2C; for maximal potentiation Glu N2C: in brackets after EC50; for maximal potentiation Glu N2C / I10 μM/ICONTROL (mean ± SEM, %) Glu N2C: percent of response without compound; for I10 μM/ICONTROL (mean ± SEM, %) Glu N2C: 10 μM test compound with glutamate 100 μM and glycine 30 μM, Tables 1-5
GluN2C-containing NMDA receptors (Homo sapiens, UniProt Q14957), sequence (Q14957 20-1233, other chains not shown): as the sequence (Q14957 20-1233, other chains not shown) above
Description: as §1, §2

[7] = 1622-35 10 μM versus control, N 4

SMILES | EC50 [5] | maximal potentiation Glu N2D [5] | EC50 [2] | maximal potentiation Glu N2B [2] | EC50 [6] | maximal potentiation Glu N2C [6] | I10 μM/ICONTROL (mean ± SEM, %) Glu N2D [5] | I10 μM/ICONTROL (mean ± SEM, %) Glu N2B [2] | I10 μM/ICONTROL (mean ± SEM, %) Glu N2C [6] | other results
COc1ccc(C(=O)N2CN(CC3CCCO3)Cc3c2sc(C)c3C)cc1 (stereo not shown) | – | – | – | – | – | – | – | – | – | IC50 [1]: 35 µM; % response at 100 μM, Glu N2B [2]: 92% response at 100 μM; IC50 [3]: 6 µM
Cc1sc2ncn(CC(=O)N3CCCC3)c(=O)c2c1-c1cccc(I)c1 [Compound 1622-35] | – | – | – | – | – | – | – | – | – | effect on channel function and deactivation, excised outside-out patch ([4]; 30 μM 1622-35): increases in GluN1/GluN2 channel function and slows deactivation; Decay Time Constant, Fold Increase [4, 7]: 5.7 ± 1.9 fold; Peak Amplitude, Fold Increase [4, 7]: 3.4 ± 0.6 fold; Peak Amplitude (pA) ([4]; 1622-35 10 μM, 100 μM glutamate, 30 μM glycine, control 628 ± 237, N 4): 1694 ± 417 pA; Decay Time Constant ([4]; 1622-35 10 μM, 100 μM glutamate, 30 μM glycine, control 681 ± 142, N 4): 3037 ± 166 ms; prolonged deactivation of NMDA-Rs ([4]; rapid solution exchange electrophysiology): roughly 3 fold; effect on CA1 EPSPs during theta burst stimulation (hippocampal CA1 neurons): enhances the NMDA components of CA1 EPSPs; effect on sEPSCs in hippocampal pyramidal neurons (hippocampal CA1 neurons): potentiates only the NMDA component of the sEPSCs; total charge transfer of EPSCs (hippocampal CA1 neurons; 10 μM 1622-35): 2.3 times greater than control; time course of excitatory post synaptic currents (hippocampal CA1 neurons; 10 μM 1622-35, n=4, control 280±30 ms): 970 ± 220 ms
COCCN1Cc2c(sc(C)c2C)N(C(=O)c2ccc(OC)cc2)C1 | – | – | – | – | – | – | – | – | – | IC50 [1]: 109 µM; % response at 100 μM, Glu N2B [2]: 86% response at 100 μM; IC50 [3]: 46 µM
Cc1sc2ncn(CC(=O)SC(C)(C)C)c(=O)c2c1-c1cccc(Cl)c1 [1 / 3-Cl—Ph / Me / StBu] | – | – | – | – | – | – | 73 ± 2.6% | 92 ± 4.6% | 87 ± 4.0% | –
Cc1sc2ncn(CC(=O)N3CCCC3)c(=O)c2c1-c1cccc(-n2cncn2)c1 [3-1,2,4 triazolyl-Ph / Me] | 108 µM | 239% | 293 µM | 402% | 44 µM | 308% | 108 ± 6.2% | 110 ± 2.6% | 113 ± 5.8% | –
Cc1sc2ncn(CC(=O)N3CCCC3)c(=O)c2c1-c1ccc(Br)c(Br)c1 [3,4-Br—Ph / Me] | 30 µM | 1205% | 5.2 µM | 223% | 13 µM | 561% | 292 ± 13.7% | 188 ± 9.3% | 281 ± 17.7% | –
Cc1sc2ncn(Cc3cn(CCC4OCCCO4)nn3)c(=O)c2c1-c1cccc(Cl)c1 | – | – | – | – | – | – | 88 ± 3.4% | 89 ± 2.5% | 88 ± 0.5% | –
Cc1sc2ncn(CC(=O)OC(C)(C)C)c(=O)c2c1-c1cccc(I)c1 [1 / 3-I—Ph / Me / OtBu] | – | – | – | – | – | – | 94 ± 4.3% | 87 ± 3.9% | 101 ± 6.8% | –

Continued, in another order:

EC50 [5] | maximal potentiation Glu N2D [5] | EC50 [2] | maximal potentiation Glu N2B [2] | EC50 [6] | maximal potentiation Glu N2C [6] | I10 μM/ICONTROL (mean ± SEM, %) Glu N2D [5] | I10 μM/ICONTROL (mean ± SEM, %) Glu N2B [2] | I10 μM/ICONTROL (mean ± SEM, %) Glu N2C [6] | SMILES | other results
18 µM | 232% | 15 µM | 147% | 18 µM | 186% | – | – | – | CCOc1ccc(-c2c(C)sc3ncn(CC(=O)N4CCCC4)c(=O)c23)cc1 [4-OEt—Ph / Me] | –
12 µM | 262% | 15 µM | 153% | 14 µM | 168% | 148 ± 9.1% | 115 ± 5.4% | 120 ± 3.7% | Cc1sc2ncn(CC(=O)N3CCCC3)c(=O)c2c1-c1ccccc1 [Ph / Me] | –
10 µM | 592% | 23.8 µM | 295% | 10 µM | 613% | 175 ± 9.4% | 176 ± 8.1% | 264 ± 17.7% | Cc1sc2ncn(CC(=O)N3CCCC3)c(=O)c2c1-c1cccc(N=[N+]=[N-])c1 [3-N3—Ph / Me] | –
60 µM | 1860% | 12 µM | 304% | 36 µM | 1483% | 253 ± 13.3% | 185 ± 4.8% | 321 ± 13.6% | Cc1sc2ncn(CC(=O)N3CCCC3)c(=O)c2c1-c1cccc([N+](=O)[O-])c1 [3-NO2—Ph / Me] | –
23 µM | 381% | 11 µM | 223% | 15 µM | 347% | – | – | – | Cc1sc2ncn(CC(=O)N3CCCC3)c(=O)c2c1-c1ccc(Cl)cc1 [4-Cl—Ph / Me] | –
45 µM | 206% | 75 µM | 262% | 89 µM | 369% | 101 ± 1.8% | 121 ± 5.7% | 110 ± 2.1% | O=C(Cn1cnc2scc(-c3ccc(I)cc3)c2c1=O)N1CCCC1 [4-I—Ph / H] | –
